Measurements from patent US10913788B2, “Pharmaceutical composition for preventing or treating dry eyes” (EYEBIO KOREA, priority 2015, dated 2021).

Key:
Type in all cases: in vivo
[1] = system: NOD.B10.H2^b mice; test: Tear production measured with phenol red-impregnated cotton threads in dry eye mice after removal of desiccation stress; conditions: for increased tear production compared to the control group (PBS group): 10 mg/ml in PBS, 5 μL instilled into eyeballs 5 times per day, up to 10 days after removal of desiccation stress, p<0.05; for tear production / tear volume, result in words: eye instillation 5 times per day for 10 days after removal of desiccation stress, 0.1% HA
Protocol: (§1) NOD.B10.H2^b mice were purchased from Jackson Laboratory (Bar Harbor, Me., USA). Experiments on animals were performed according to the guidelines for animal experiments of Inje University College of Medicine (No.; 2014-029) and the ARVO statement for the use of animals in ophthalmic and vision research. 12-to-16-week-old NOD.B10.H2^b mice underwent desiccation stress as being exposed to an air draft from a fan at an ambient humidity of about 40% to 50% for 18 hours per day, and then, were subjected to subcutaneous injection of 0.5 mg/0.2 mL of muscarinic receptor blockers. Also, the mice were injected with scopolamine hydrobromide (Sigma-Aldrich, St. Louis, Mo.) alternatively on hindquarters 4 times per day (9 AM, 12 PM, 3 PM, and 6 PM) for 10 days. During these experiments, behaviors and food and water intakes of the mice were not restricted. 10 days later, the mice were euthanized.
(§2) 10 days after the mice underwent desiccation stress, the scopolamine injection was halted, and then, the mice newly had environments with normal humidity and temperature. After the desiccation stress was removed, the mice were divided into a peptide I group or a peptide II group, wherein 10 mg/ml of peptide I or 10 mg/ml of peptide II was dissolved in PBS and 5 μL of PBS was instilled into eyeballs of the mice 5 times per day for 10 days. In addition, 5 μL of PBS or 5 μL of 0.1% HA were instilled into eyeballs of the mice in a control group, i.e., a PBS group or a hyaluni (HA) group, 5 times a day for 10 days. In each group, both eyes of each of 5 mice were used to conduct the experiments in a repetitive manner.
Extents of tear production were measured with phenol red-impregnated cotton threads (Zone-Quick; Oasis, Glendora, Calif.), as previously described (Villareal A L, Farley W, Pflugfelder S C. Effect of topical ophthalmic epinastine and olopatadine on tear volume in mice. Eye Contact Lens. 2006; 32(6):272-276). The threads were held medical tweezers and placed in the lateral canthus for 20 seconds. The tear volumes were expressed as millimeter (mm) of wet thread that had been turned red by the tears, as measured under a microscope (SZX7; Olympus corp, Tokyo, Japan).
The tear fluid uptakes measured in millimeters were compared to a standard curve that was prepared from cotton threads with known uptake volumes of a stock basic solution ([…] of 0.9% saline and 5 mL of 5 N NaOH) over 20 seconds that were within the range that would be expected for mouse tears.

[2] = system: TNF-α, ICAM-1, VCAM-1, MMP-2, and MMP-9; test: Immunohistochemical analysis of inflammatory markers in conjunctiva of dry eye mice; conditions: instillation for 10 days after removal of desiccation stress
Protocol: as §1
(§3) 10 days after the mice underwent desiccation stress, the scopolamine injection was halted, and then, the mice newly had environments with normal humidity and temperature. After the desiccation stress was removed, the mice were divided into a peptide I group or a peptide II group, wherein 10 mg/ml of peptide I or 10 mg/ml of peptide II was dissolved in PBS and 5 μL of PBS was instilled into eyeballs of the mice 5 times per day for 10 days. […]

[3] = system: conjunctival goblet cells; test: Distribution of conjunctival goblet cells (PAS stain) in dry eye mice; conditions: instillation after removal of desiccation stress, p<0.05; for conjunctival goblet cells: desiccation stress 7.43±1.52
Protocol: as §1, §2
The eyes and adnexa of the mice in the control groups (i.e., the PBS group and the HA group) and the experimental groups (i.e., the peptide I group and the peptide II group) were surgically excised, fixed in 10% formalin, and embedded in paraffin and an OCT compound.
6 μm sections of the tissue samples were stained with haematoxylin and eosin (H&E) and periodic acid-Schiff (PAS) reagent.
5 animals in each group were subjected to the staining as described above, and then, were examined and photographed with a virtual microscope (NanoZoomer 2.0 RS, Hamamatsu, Japan).
The distribution of the conjunctival goblet cells in the dry eye mice were observed following peptide I, peptide II, and HA instillation.

[4] = system: corneal epithelial cells; test: Detachment of corneal epithelial cells (H&E stain) in dry eye mice; conditions: instillation for 10 days after removal of desiccation stress
Protocol: as §1, §3

Row | Substance | increased tear production compared to the control group (PBS group) [1] | tear production / tear volume, result in words [1] | expression of inflammatory markers (TNF-α, ICAM-1, VCAM-1, MMP-2, MMP-9) in the conjunctiva, result in words [2] | conjunctival goblet cells [3] | increase of conjunctival goblet cells that were decreased by desiccation stress [3] | number of detached corneal epithelial cells ([4]; DS 10D 2.29±0.61, PBS 1.43±0.34) | decrease of detachment of corneal epithelial cells compared to the control groups [4]
1 | GDRGD [peptide I, collagen type I α1 based peptide GDRGD] | about 2.52 fold | recovering the tear volumes up to normal tear volumes | significantly decreased | 13.3 ± 2.41 cells/0.1 mm^2 | about 1.8 fold | about 0.19±0.14 /0.1 mm^2 | 
2 | GQDGLAGPK [peptide II, collagen type II α1 based peptide …] | about 2.52 fold | recovering the tear volumes up to normal tear volumes | significantly decreased | 12.1 ± 1.11 cells/0.1 mm^2 | about 1.63 fold |  | about 4 fold
